Source: patent US10085973B2, “Pharmaceutical composition containing a compound having a thrombopoietin receptor agonistic activity” (Shionogi & Co., Ltd., priority 2012, dated 2018)

System: patients with thrombocytopenia caused by chronic liver disease
Assay: Example 2 Test Example 2: placebo-controlled repeated oral administration before percutaneous liver ablation with discontinuation criteria
Type: in vivo, human
Description: To patients with thrombocytopenia caused by chronic liver disease, lusutrombopag as a pretreatment of percutaneous liver ablation was orally administered repeatedly for 7 days while applying the discontinuation criteria designed in Example 1 and profile of the platelet count was studied. In the present Example, the term “ablation” refers to radiofrequency ablation.
Patients with thrombocytopenia caused by chronic liver disease who are scheduled to undergo percutaneous liver ablation.
Patients who meet the following inclusion criteria are included. • 1) Age: 20 years of age or older (at the time of consent); • 2) Patients who themselves can give a consent in writing; • 3) Patients with thrombocytopenia caused by chronic liver disease; • 4) Patients who are scheduled to undergo percutaneous liver ablation for primary liver cancer; • 5) Patients having a platelet count which is less than 5×10^4/μL at the time of screening; • 6) Patients whose ECOG* Performance Status of Grade is 0 to 1; and • 7) Patients who can practice contraception from entry to the end of observation. (Exclusion Criteria)
Patients who meet the following criteria are excluded. • 1) Patients who underwent splenectomy; • 2) Patients who have a complication presenting thrombocytopenia; • 3) Patients who underwent liver transplant; • 4) Degree of hepatic disorder classified as the Child-Pugh class of C; • 5) Hepatic encephalopathy uncontrolled by medicaments; • 6) Ascites uncontrolled by medicaments; • 7) Patients who have a complication of malignant tumor other than primary liver cancer; • 8) Patients who have a complication or a history of thrombosis or thrombotic disease; • 9) Patients who have absence of hepatopetal blood flow in the portal vein; • 10) Patients who have a complication or a history of disease with hemorrhage risk; • 11) Patients who received a therapeutic agent that affects a platelet count or underwent a therapy that affects a platelet count within 90 days before registry; • 12) Patients who received a blood product (excluding erythrocyte product) within 14 days before registry; or • 13) Patients who previously received a TPO receptor agonist. (Drugs which are Prohibited, Limited or Allowed for Coadministration During the Trial)
In each allocated group, lusutrombopag is orally administered repeatedly once daily for 7 days. After patients are monitored on day 8, they undergo percutaneous liver ablation before day 14 from initiation of administration. They are monitored until about day 30 after initiation of administration.
Lusutrombopag is orally administered repeatedly once daily for 7 days. On day 1, the drug is administered at the time of visit. On day 5 to day 7, the drug shall be administered after checking the platelet count measured on the same day. Administration of lusutrombopag shall be discontinued when the platelet count reaches to the following criteria (administration discontinuating criteria) in a clinical examination after administration of the investigational drug.
Administration discontinuating criteria: when the platelet count has increased by 2×10^4/μL or more from the platelet count before initiation of administration and the platelet count has reached to 5×10^4/μL or higher.
As the platelet count before initiation of administration, the platelet count determined within 7 days before initiation of administration was used.
Daily dose was any one of 2.0, 3.0 and 4.0 mg of lusutrombopag.
Proportion of patients who have a platelet count on day 8 after initiation of administration that increased by 2×10^4/μL or more from a platelet count before initiation of administration and reached to 5×10^4/μL or higher. […]

CCCCCCO[C@@H](C)c1cccc(-c2csc(NC(=O)c3cc(Cl)c(/C=C(\C)C(=O)O)c(Cl)c3)n2)c1OC [lusutrombopag, (E)-3-[2,6-dichloro-4-[4-[3-[(S)-1-hexyloxyethyl]-2-methoxyphenyl]-thiazol-2-ylcarbamoyl]-phenyl]-2-methylacrylic acid]
Endpoint 2: Number of patients who had a platelet count during the trial that increased by 2 × 10^4/μL or more from the count before initiation of administration and reached to 5 × 10^4/μL or higher (2.0 mg once daily, n = 15): 10 | Number of patients to whom administration was discontinued according to the administration discontinuating criteria (2.0 mg once daily, n = 15): 3 | Number of patients who received platelet transfusion (2.0 mg once daily, n = 15): 3 | Endpoint 2: Number of patients who had a platelet count during the trial that increased by 2 × 10^4/μL or more from the count before initiation of administration and reached to 5 × 10^4/μL or higher (3.0 mg once daily, n = 16): 11 | Number of patients to whom administration was discontinued according to the administration discontinuating criteria (3.0 mg once daily, n = 16): 3 | Number of patients who received platelet transfusion (3.0 mg once daily, n = 16): 3 | Endpoint 2: Number of patients who had a platelet count during the trial that increased by 2 × 10^4/μL or more from the count before initiation of administration and reached to 5 × 10^4/μL or higher (4.0 mg once daily, n = 15): 12 | Number of patients to whom administration was discontinued according to the administration discontinuating criteria (4.0 mg once daily, n = 15): 5 | Number of patients who received platelet transfusion (4.0 mg once daily, n = 15): 4 | efficacy at each dose (all doses (2.0, 3.0 and 4.0 mg)): all doses showed the efficacy | patients who had a platelet count of higher than 20×10^4/μL during the observation period (daily dose 2.0, 3.0 and 4.0 mg): None
